Laboratory results from patent US9657079B2, “Truncated GLP-1 derivatives and their therapeutical use” (Novo Nordisk A/S, priority 2007, dated 2017).
Where a SMILES comes first, the peptide text is derived from it. [ ]: non-standard residue; d: D form. Aib = CC(C)(N)C(=O)O

Assays:
[1] = target: T1, isolated N-terminal extracellular domain of the GLP-1R receptor (nGLP-1R) (Homo sapiens, UniProt P43220); assay: Displacement of 125I-Exendin-4(9-39) from nGLP-1R (SPA); format: binding; conditions: SPA beads, read-out: affinity to nGLP-1R (IC50)
T1 construct: isolated N-terminal extracellular domain of the GLP-1R receptor (nGLP-1R); made in house
Method: The protein is then biotinylated and immobilized, preferably on streptavidin-coated SPA beads. The nGLP1R in a suitable buffer such as 0.1M NaHCO3 may be biotinylated using 75 μg BNHS (Sigma H1759) to 1 mg protein. The biotinylated nGLP1R is subsequently preferably dialyzed against PBS. […] The plates are incubated on a shaker, preferably at RT for 3 hours. The SPA particles may be spun down by centrifugation, e.g. for 10 min at 1500 rpm, and the plates are counted, e.g. in a TopCount-NXT (PerkinElmer).
The nGLP1R in 0.1M NaHCO3 was biotinylated using 75 μg BNHS (Sigma H1759) to 1 mg protein. The biotinylated nGLP1R was subsequently dialyzed against PBS. All reagents and derivatives were diluted in PBS with 0.05% v/v Tween 20. […] The plates were incubated on a shaker at RT for 3 hours. The SPA particles were spun down by centrifugation for 10 min at 1500 rpm and the plates were counted in a TopCount-NXT (PerkinElmer).

human GLP-1 receptor [2] = target: T2, human GLP-1 receptor (Homo sapiens, UniProt P43220); assay: Stimulation of cAMP formation, plasma membranes from BHK467-12A (tk-ts13) cells, AlphaScreen cAMP kit; format: biochemical; conditions: membranes of BHK467-12A (tk-ts13) expressing the human GLP-1 receptor; read-out: potency (EC50), cAMP formation
T2 construct: expressed in transfected cells; purified plasma membranes
Method: In particular embodiments (i) baby hamster kidney (BHK) cells expressing the cloned human GLP-1 receptor are used, preferably BHK-467-12A, more preferably BHK-467-12A (tk-ts13); (ii) the cells are grown in DMEM media with the addition of 100 IU/mL penicillin, 100 μg/mL streptomycin, 5% fetal calf serum and 0.5 mg/mL Geneticin G-418 (Life Technologies), preferably at 5% CO2; (iii) the cells, preferably at approximately 80% confluence, are washed twice in phosphate buffered saline; (iv) the cells are harvested with an aqueous solution of tetrasodium salt of ethylenediaminetetraacetic acid, such as Versene; (v) plasma membranes are prepared from the cells by homogenisation, preferably in buffer 1; the homogenate is centrifuged, e.g. at 48,000×g for 15 min at 4° C.; and/or (vii) the pellet is suspended by homogenization in buffer 2. Steps (vi) and (vii) are preferably repeated, e.g. one or two times more.
The functional receptor assay may be carried out as described in Example 21 by measuring cyclic AMP (cAMP) as a response to stimulation by the insulinotropic agent. cAMP formed is preferably quantified by the AlphaScreen™ cAMP Kit (Perkin Elmer Life Sciences). Incubations may be carried out in half-area 96-well microtiter plates in a total volume of 50 μL buffer 3 (50 mM Tris-HCI, 5 mM HEPES, 10 mM MgCl2, pH 7.4) and with the following additions: 1 mM ATP, 1 μM GTP, 0.5 mM 3-isobutyl-1-methylxanthine (IBMX), 0.01% Tween-20, 0.1% BSA, 6 μg membrane preparation, 15 μg/mL acceptor beads, 20 μg/mL donor beads preincubated with 6 nM biotinyl-cAMP. Analogues or derivatives to be tested for agonist activity are preferably dissolved and diluted in buffer 3. GTP is freshly prepared for each experiment. […]
For comparison, the potency of truncated natural, human GLP-1(7-33) was also determined.
Purified plasma membranes from a stable transfected cell line, BHK467-12A (tk-ts13), expressing the human GLP-1 receptor was stimulated with GLP-1 compound in question, and the potency of cAMP production was measured using the AlphaScreen™ cAMP Assay Kit from Perkin Elmer Life Sciences. […]
Cells at approximate 80% confluence are washed 2× with PBS (Phosphate Buffered Saline) and harvested with Versene (aqueous solution of the tetrasodium salt of ethylenediaminetetraacetic acid), centrifuged 5 min at 1000 rpm and the supernatant removed. […] Suspension in Buffer 2, homogenization and centrifugation is repeated once and the membranes are resuspended in Buffer 2 and ready for further analysis or stored at −80° C.
The functional receptor assay was carried out by measuring the peptide induced cAMP production by The AlphaScreen Technology. […] Formed cAMP is counted and measured at a Alpha Fusion Microplate Analyzer. […]

human GLP-1 receptor [3] = target: T2, human GLP-1 receptor; assay: Displacement of 125I-GLP-1 from the GLP-1 receptor, BHK tk-ts13 membranes (SPA); conditions: displacement of 125I-GLP-1, BHK tk-ts13 membranes, read-out: IC50, binding affinity to the GLP-1 receptor
Excerpt: In a second aspect, the GLP-1 analogue or derivative thereof (“GLP-1 compound”) has a high affinity to the GLP-1 receptor. The affinity to the GLP-1 receptor may be determined as described in Example 23, i.e. by way of displacement of ^125I-GLP-1 from the receptor. BHK cells may be used for membrane preparation, preferably strain tk-ts13. The membranes may be purified, preferably as described in Example 23, A preferred binding assay method is the SPA assay of Example 23.
The binding affinity of a number of GLP-1 compounds of the invention (compounds of Examples 1-7, and 9-18) to the human GLP-1 receptor was measured by way of their ability to displace ^125I-GLP-1 from the receptor.
Species (in vitro): Hamster
Biological End Point: Receptor Binding
The cells (approx. 80% confluence) were washed twice in PBS and harvested (PBS+EDTA or Versene), following which they were separated by centrifugation at 1000 rpm for 5 min. The cells/cell pellet must be kept on ice to the extent possible in the subsequent steps. The cell pellet was homogenised with Ultrathurrax for 20-30 seconds in a suitable amount of Buffer 1 (depending on the amount of cells, but e.g. 10 ml). The homogenate as centrifuged at 20000 rpm for 15 minutes. The pellet was resuspended (homogenised) in 10 ml Buffer 2 and re-centrifuged. This step was repeated once more. The resulting pellet was resuspended in Buffer 2, and the protein concentration was determined. The membranes were stored at −80° C.
Buffer 1: 20 mM Na-HEPES+10 mM EDTA, pH 7.4
Buffer 2: 20 mM Na-HEPES+0.1 mM EDTA, pH 7.4
Test compounds/peptides, membranes, SPA-particles and [^125I] are diluted in assay buffer. 25 ul (micro liter) of test compounds/peptides are added to Optiplate. Buffer is added (50 ul). Add 5-10 ug protein/sample (50 ul) corresponding to 0.1-0.2 mg protein/ml (to be preferably optimised for each membrane preparation). Add SPA-particles (Wheatgerm agglutinin SPA beads) RPNQ 0001) 0.5 mg/well (50 ul). Start the incubation with [I^125]-GLP-1 (final concentration 0.05 nM corresponding to 49.880 DPM, 25 ul). The plates are sealed with PlateSealer. Incubate for 120 minutes at 30° C. while shaking. The plates are centrifuged (1500 rpm, 10 min) and counted in Topcounter.
Assay buffer: 50 mM HEPES

T1 sequence (P43220 24-139 limits assumed): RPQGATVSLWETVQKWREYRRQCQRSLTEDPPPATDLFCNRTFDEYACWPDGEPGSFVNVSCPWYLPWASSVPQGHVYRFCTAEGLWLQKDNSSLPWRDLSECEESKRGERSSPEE
T2 sequence (P43220 24-463): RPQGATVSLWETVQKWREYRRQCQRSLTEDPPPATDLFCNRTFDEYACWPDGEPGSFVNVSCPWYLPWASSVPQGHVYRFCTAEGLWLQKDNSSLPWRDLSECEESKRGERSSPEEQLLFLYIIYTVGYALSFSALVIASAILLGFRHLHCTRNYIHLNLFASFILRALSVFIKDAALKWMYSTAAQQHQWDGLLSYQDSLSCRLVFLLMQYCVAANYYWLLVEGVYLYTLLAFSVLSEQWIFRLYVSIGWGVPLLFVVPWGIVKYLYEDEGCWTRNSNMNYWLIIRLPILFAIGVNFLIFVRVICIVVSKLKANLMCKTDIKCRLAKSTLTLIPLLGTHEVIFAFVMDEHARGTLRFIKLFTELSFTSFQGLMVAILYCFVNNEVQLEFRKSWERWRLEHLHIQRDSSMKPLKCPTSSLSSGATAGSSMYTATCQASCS

Row | SMILES | IC50 [1] | EC50 (human GLP-1 receptor [2]) | IC50 (human GLP-1 receptor [3])
1 | CC[C@H](C)[C@H](NC(=O)[C@H](Cc1ccccc1)NC(=O)[C@H](CCC(=O)O)NC(=O)[C@H](CCCNC(=N)N)NC(=O)[C@@H](NC(=O)[C@H](C)NC(=O)[C@H](CCC(N)=O)NC(=O)[C@H](CCC(=O)O)NC(=O)[C@H](CCC(=O)O)NC(=O)[C@H](CC(C)C)NC(=O)[C@H](Cc1ccc(O)cc1)NC(=O)[C@H](CO)NC(=O)[C@H](CO)NC(=O)[C@@H](NC(=O)[C@H](CC(=O)O)NC(=O)[C@H](CO)NC(=O)[C@@H](NC(=O)[C@H](Cc1ccccc1)NC(=O)[C@@H](NC(=O)CNC(=O)[C@H](CCC(=O)O)NC(=O)[C@H](C)NC(=O)[C@@H](N)Cc1c[nH]cn1)[C@@H](C)O)[C@@H](C)O)C(C)C)C(C)C)C(=O)N[C@@H](C)C(=O)N[C@@H](Cc1c[nH]c2ccccc12)C(=O)N[C@@H](CC(C)C)C(=O)N[C@H](C(N)=O)C(C)C [Example 4, [Glu22, Val25, Arg26] GLP-1 (7-33)amide] (H-HAEGTFTSDVSSYLEEQAVREFIAWLV-NH2) | 200 to 1500 nM | < 0.3 nM | 0.24 to 44 nM
2 | CC[C@H](C)[C@H](NC(=O)[C@H](Cc1ccccc1)NC(=O)[C@H](CCC(=O)O)NC(=O)[C@H](CCCNC(=N)N)NC(=O)[C@H](C)NC(=O)[C@H](C)NC(=O)[C@H](CCC(N)=O)NC(=O)[C@H](CCC(=O)O)NC(=O)[C@H](CCC(=O)O)NC(=O)[C@H](CC(C)C)NC(=O)[C@H](Cc1ccc(O)cc1)NC(=O)[C@H](CO)NC(=O)[C@H](CO)NC(=O)[C@@H](NC(=O)[C@H](CC(=O)O)NC(=O)[C@H](CO)NC(=O)[C@@H](NC(=O)[C@H](Cc1ccccc1)NC(=O)[C@@H](NC(=O)CNC(=O)[C@H](CCC(=O)O)NC(=O)[C@H](C)NC(=O)[C@@H](N)Cc1c[nH]cn1)[C@@H](C)O)[C@@H](C)O)C(C)C)C(=O)N[C@@H](C)C(=O)N[C@@H](Cc1c[nH]c2ccccc12)C(=O)N[C@@H](CC(C)C)C(=O)N[C@H](C(N)=O)C(C)C [Example 1, [Glu22,Arg26]GLP-1 (7-33) Amide] (H-HAEGTFTSDVSSYLEEQAAREFIAWLV-NH2) | 200 to 1500 nM | < 0.3 nM | 0.24 to 44 nM
3 | CC[C@H](C)[C@H](NC(=O)[C@H](Cc1ccccc1)NC(=O)[C@H](CCC(=O)O)NC(=O)[C@H](CCCNC(=N)N)NC(=O)[C@@H](NC(=O)[C@H](C)NC(=O)[C@H](CCC(N)=O)NC(=O)[C@H](CCC(=O)O)NC(=O)[C@H](CCC(=O)O)NC(=O)[C@H](CCCCN)NC(=O)[C@H](Cc1ccc(O)cc1)NC(=O)[C@H](CO)NC(=O)[C@H](CO)NC(=O)[C@@H](NC(=O)[C@H](CC(=O)O)NC(=O)[C@H](CO)NC(=O)[C@@H](NC(=O)[C@H](Cc1ccccc1)NC(=O)[C@@H](NC(=O)CNC(=O)[C@H](CCC(=O)O)NC(=O)C(C)(C)NC(=O)[C@@H](N)Cc1c[nH]cn1)[C@@H](C)O)[C@@H](C)O)C(C)C)C(C)C)C(=O)N[C@@H](CCC(=O)O)C(=O)N[C@@H](Cc1c[nH]c2ccccc12)C(=O)N[C@@H](CC(C)C)C(=O)N[C@H](C(N)=O)C(C)C [Example 5, [Aib8,Lys20,Glu22,Val25,Arg26,Glu30] GLP-1 (7-33) Amide] (H-H[Aib]EGTFTSDVSSYKEEQAVREFIEWLV-NH2) | 200 to 1500 nM | < 0.3 nM | 0.24 to 44 nM
4 | CC[C@H](C)[C@H](NC(=O)[C@H](Cc1ccccc1)NC(=O)[C@H](CCC(=O)O)NC(=O)[C@H](CCCNC(=N)N)NC(=O)[C@H](C)NC(=O)[C@H](C)NC(=O)[C@H](CCC(N)=O)NC(=O)[C@H](CCC(=O)O)NC(=O)[C@H](CCC(=O)O)NC(=O)[C@H](CC(C)C)NC(=O)[C@H](Cc1ccc(O)cc1)NC(=O)[C@H](CO)NC(=O)[C@H](CO)NC(=O)[C@@H](NC(=O)[C@H](CC(=O)O)NC(=O)[C@H](CO)NC(=O)[C@@H](NC(=O)[C@H](Cc1ccccc1)NC(=O)[C@@H](NC(=O)CNC(=O)[C@H](CCC(=O)O)NC(=O)[C@H](C)NC(=O)[C@@H](N)Cc1c[nH]cn1)[C@@H](C)O)[C@@H](C)O)C(C)C)C(=O)N[C@@H](C)C(=O)N[C@@H](Cc1c[nH]c2ccccc12)C(=O)N[C@@H](CC(C)C)C(=O)N[C@H](C(=O)O)C(C)C [Example 7, [Glu22, Arg26]GLP-1(7-33)peptide] (H-HAEGTFTSDVSSYLEEQAAREFIAWLV-OH) | 200 to 1500 nM | < 0.3 nM | 0.24 to 44 nM
